# Reference: patent US10047093B2, “Substituted imidazo[1,2-B]pyridazines as protein kinase inhibitors” (Tolero Pharmaceuticals, Inc., priority 2011, dated 2018)
# Assays:
# Pim-1 kinase = Pim-1 kinase (Homo sapiens (Human), UniProt P11309); experiment: Pim-1 kinase inhibition assay (Promega Kinase-Glo); type: biochemical; conditions: read-out: IC50 on Pim1
# Source text: One illustrative manner in which Pim-1 kinase activity can be determined is by quantifying the amount of ATP remaining in solution after an in vitro Pim-1 kinase reaction. The Kinase-Glo Assay Kit (Promega, Inc., Madison, Wis.) allows this. The amount of ATP remaining in the solution after the kinase reaction serves as a substrate for the luciferase to catalyze luciferin to oxyluciferin plus one photon of light. Thus, the luminescent signal read by the Luminoskan Ascent Instrument (Thermo Electron Corp., Milford, Mass.) correlates with the amount of ATP present after the kinase reaction and inversely correlates with the amount of kinase activity. […] These assays are set up in duplicate 50 ul volumes in white, flat bottom 96 well plates. […] This solution is incubated at 30 degrees Celsius at 360 rpm for two hours. Following the incubation, 50 ul of Kinase-Glo reagent is added to each well, including all positive and negative control wells, and incubated at room temperature for 15 minutes. […] The IC50 values can then be calculated for each inhibitor tested.
# UM-UC-3 xenograft tumors = experiment: UM-UC-3 established mouse xenograft; type: in vivo
# Source text: (§1) Male and female Nu/Nu mice were purchased from Harlan Sprague Dawley (Indianapolis, Ind.). Female Nu/Nu mice were used for all xenograft evaluations with the exception of the PC-3 xenografts where male Nu/Nu mice were used. Cell lines were expanded in vitro in complete media, and if adherent were harvested by trypsin-EDTA, centrifuged and resuspended in PBS 1:1 with Matrigel (BD Bioscienes). Cells were inoculated subcutaneously in the right hind flank of mice. […] Tumor volumes and body weights were determined twice a week, and tumor weights were measured at the completion of the translational xenograft studies.
# PC-3 xenograft tumors = experiment: PC-3 established mouse xenograft; type: in vivo
# Source text: as §1
# hematological cell lines = experiment: In vitro viability assay, panel of hematological cell lines; type: cell-based; conditions: most sensitive hematological cell lines
# Method: (§2) Adherent or suspension cancer cell lines were seeded at 2000-5000 cells/well in a 96-well plate, or 1000-2000 cells/well in a 384-well plate. Suspension cells were treated with drug the same day as seeding, while adherent cells were incubated overnight at 37° C. in 5% CO2 prior to drug treatment. All cells were treated for 72 hours, then lysed with ATPlite (Perkin Elmer) and measured on an Envision microplate reader. IC50 values were determined using GraphPad Prism software.
# (§3) Over 35 cell lines were tested, and the most sensitive cell lines from various indications were selected and verified by multiple EC50 determinations (FIG. 6). […] Anti-proliferative activity using PIM-2 shRNA against FLT3-ITD driven leukemia lines has been observed (Adam (2006) Cancer Res 66:3828-35 data not shown).
# UM-UC-3 = experiment: In vitro viability/proliferation assay, UM-UC-3; type: cell-based; conditions: Homo sapiens, UMUC3; bladder line UM-UC-3
# Method: as §2, §3
# [1] = system: ML-2 cells (wild-type FLT3); experiment: ML-2 mouse xenograft; type: in vivo; conditions: ML-2 (wild-type FLT3) xenograft
# Source text: (§4) Male and female Nu/Nu mice were purchased from Harlan Sprague Dawley (Indianapolis, Ind.). Female Nu/Nu mice were used for all xenograft evaluations with the exception of the PC-3 xenografts where male Nu/Nu mice were used. Cell lines were expanded in vitro in complete media, and if adherent were harvested by trypsin-EDTA, centrifuged and resuspended in PBS 1:1 with Matrigel (BD Bioscienes). Cells were inoculated subcutaneously in the right hind flank of mice. When tumors reached 100-200 mm^3 by caliper measurement, mice were randomized and dosing of SGI-9481 or vehicle control began and continued every day for 5 days (QDx5) with 2 days off for 18-21 days. Tumor volumes and body weights were determined twice a week, and tumor weights were measured at the completion of the translational xenograft studies.
# MV-4-11 (FLT3-ITD) = experiment: MV-4-11 mouse xenograft; type: in vivo; conditions: MV-4-11 (FLT3-ITD) established xenografts
# Source text: as §4
# [2] = 125 mg/kg, less than with 200 mg/kg
# Sequence of Pim-1 kinase (P11309 whole entry): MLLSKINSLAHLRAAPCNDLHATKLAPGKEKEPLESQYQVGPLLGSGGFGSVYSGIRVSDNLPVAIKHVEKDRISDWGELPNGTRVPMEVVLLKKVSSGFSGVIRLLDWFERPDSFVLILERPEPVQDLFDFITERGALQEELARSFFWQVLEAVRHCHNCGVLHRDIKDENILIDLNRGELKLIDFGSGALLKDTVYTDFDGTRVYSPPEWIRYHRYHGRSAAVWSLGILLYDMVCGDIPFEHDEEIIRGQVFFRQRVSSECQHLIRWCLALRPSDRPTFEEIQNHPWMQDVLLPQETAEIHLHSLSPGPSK
Compound,IC50 (Pim-1 kinase),tumor growth inhibition (UM-UC-3 xenograft tumors; [2]),body weight and gross adverse toxicity (UM-UC-3 xenograft tumors; oral dosing of 200 mg/kg),tumor growth measured by volume (caliper) and by final tumor weight (UM-UC-3 xenograft tumors; oral dosing of 200 mg/kg),tumor growth inhibition (PC-3 xenograft tumors; [2]),body weight and gross adverse toxicity (PC-3 xenograft tumors; oral dosing of 200 mg/kg),tumor growth measured by volume (caliper) and by final tumor weight (PC-3 xenograft tumors; oral dosing of 200 mg/kg),EC50 (hematological cell lines),EC50 (UM-UC-3),tumor growth [1],tumor growth of established xenografts (MV-4-11 (FLT3-ITD))
"4-(((3-(3-(Trifluoromethyl)phenyl)-[1,2,4]triazolo[4,3-a]pyridin-6-yl)amino)methyl)tetrahydro-2H-thiopyran 1,1-dioxide [Compound 8-111]",> 30000 nM,–,–,–,–,–,–,–,–,–,–
CC(C)(O)[C@H]1CC[C@H](Nc2ccc3ncc(-c4cccc(C(F)(F)F)c4)n3n2)CC1 [Compound 8-31],–,significant tumor growth inhibition,no significant changes in body weight or gross adverse toxicity,significantly reduced,significant tumor growth inhibition,no significant changes in body weight or gross adverse toxicity,significantly reduced,1000 to 2000 nM,1000 to 2000 nM,significant tumor growth inhibition,induced regressions
"C[C@]1(O)CC[C@H](Nc2ccc3nnc(-c4cccc(OC(F)(F)F)c4)n3c2)CC1 [Compound 8-100, 1-Methyl-4-((3-(3-(trifluoromethoxy)phenyl)-[1,2,4]triazolo[4,3-a]pyridin-6-yl)amino)-trans-cyclohexanol]",1640 nM,–,–,–,–,–,–,–,–,–,–
